Experimental data taken from patent publication EP2763666B1 (priority 2011, dated 2013).
Where two headings read alike, the source gives them in different places.

Experiments:
[1] = test system: L. infantum infected dogs; assay type: in vivo; details: mean ± standard deviation
[2] = test system: L. infantum infected dogs; assay type: in vivo; details: for Antibody titre: mean ± standard deviation
[3] = test system: L. infantum infected dogs; assay type: in vivo; details: for RT-PCR on lymph node FNA: mean ± standard deviation
canine blood monocytes = assay type: in vivo, dogs; details: for Macrophages activity of killing: NO production / NBT reduction; for Macrophages activity of killing / Macrophages activity of binding: mean ± standard deviation; for Macrophages activity of binding: direct count of macrophages containing yeast cells
[4] = test system: L. infantum infected dogs; assay type: in vivo; details: mean ± standard deviation; remark: listed apart in the source
[5] = test system: L. infantum infected dogs; assay type: in vivo; details: for A/G ratio / Serum albumin / Serum γ-globulin: mean ± standard deviation
generalized demodicosis = experiment: Canine generalized demodicosis: IP versus milbemycin oxime; assay type: in vivo, dogs; details: fraction of cases
Method: Twelve dogs diagnosed with generalized demodicosis were treated, 6 with IP and 6 with milbemycin oxime. Cases diagnosed before two years of age were classified as juvenile-onset (58.3%, 7 dogs) and those diagnosed after two years of age as adult-onset (41.6%, 5 dogs). […] As previous mentioned, in six dogs cured with milbemycin oxime, the drug was used for 1-6 months (mean 2.3 months) at a dosage of 0.5-1.6 mg kg-1 body weight (mean 0.75 mg kg-1). No significant difference in dosage or treatment time was seen between juvenile and adult cases. Six dogs cured with IP were treated at the same manner indicated as reported in Example 1, and 6). In group of IP treated dogs, not differences were observed between young and adult treated animals. […] Cases with severe pododemodicosis had less chance of a cure (2/3 not cured) by using M-O protocol, but not with IP protocol (2/2 cured).
Dogs: dogs of every age, breed or sex with generalized demodicosis were used in this study. All dogs. […] Dogs developing the disease at less than two years of age were classified as juvenile-onset generalized demodicosis. Dogs that developed disease at two years of age or older were classified as adult onset generalized demodicosis. […]
Follow-up: follow-up visits were scheduled once a month for clinical evaluation and skin scrapings. The scraping sites were recorded and sampled at each subsequent examination. […]

[6] = T0 (beginning of therapy), baseline

For Meglumine antimoniate [Control group], the “CD3^+/CD21^+ ratio” value [1, 6] was 42,62 ± 21,24, the “CD4^+/CD8^+ ratio” value [1, 6] was 1,02 ± 0,48 and the “CD3^+/CD21^+ ratio” value ([1]; T1 (2 months)) was 38,13 ± 20,56. For the same compound, the “CD4^+/CD8^+ ratio” value ([1]; T1 (2 months)) was 1,04 ± 0,46, the “CD3^+/CD21^+ ratio” value ([1]; T2 (6 months)) was 39,85 ± 17,58 and the “CD4^+/CD8^+ ratio” value ([1]; T2 (6 months)) was 1,02 ± 0,45. For the same compound, the “CD3^+/CD21^+ ratio” value ([1]; T3 (12 months)) was 38,64 ± 19,54, the “CD4^+/CD8^+ ratio” value ([1]; T3 (12 months)) was 1,31 ± 0,58 and the “trend of antibody (Ab titre)” value ([2]; Figure 2A legend, after the first six months of the trial) was “antibody title increase”. It also gave an Antibody titre [2, 6] of 908 ± 1240, an Antibody titre ([2]; T1 (2 months)) of 779 ± 1031 and an Antibody titre ([2]; T2 (6 months)) of 378 ± 321. For the same compound, the Antibody titre ([2]; T3 (12 months)) was 493 ± 678, the “PCR results, levels of DNA copies (trend)” value ([3]; Figure 2B legend, after two months of treatment up to one year) was “progressive increase of parasite DNA in lymphnodes and bone-marrow” and the “RT-PCR on lymph node FNA” value [3, 6] was 613.228 ± 747.653 Parasites/ml. The “RT-PCR on lymph node FNA” value ([3]; T1 (2 months)) was 287.482 ± 434.807 Parasites/ml, the “RT-PCR on lymph node FNA” value ([3]; T2 (6 months)) was 210.103 ± 364.909 Parasites/ml and the “RT-PCR on lymph node FNA” value ([3]; T3 (12 months)) was 340.367 ± 511.898 Parasites/ml. The “Macrophages killing activity, levels of NO production / NBT reduction (trend)” value (canine blood monocytes; Figure 4A legend) was “constantly low”, the “Macrophages activity of killing” value (canine blood monocytes; [6]) was 1,1 ± 0,1 and the “Macrophages activity of binding” value (canine blood monocytes; [6]) was 31,84 ± 12,9. The “Macrophages activity of killing” value (canine blood monocytes; T1 (2 months)) was 1,2 ± 0,1, the “Macrophages activity of binding” value (canine blood monocytes; T1 (2 months)) was 34,84 ± 14,2 and the “Macrophages activity of killing” value (canine blood monocytes; T2 (6 months)) was 1,1 ± 0,1. The “Macrophages activity of binding” value (canine blood monocytes; T2 (6 months)) was 35,42 ± 13,68, the “Macrophages activity of killing” value (canine blood monocytes; T3 (12 months)) was 1,1 ± 0,1 and the “Macrophages activity of binding” value (canine blood monocytes; T3 (12 months)) was 32,77 ± 12,78. For the same compound, the Clinical scores [4, 6] was 4,4 ±2, the Clinical scores ([4]; T1 (2 months)) was 2,5 ± 1,9 and the Clinical scores ([4]; T2 (6 months)) was 2,7 ±2. For the same compound, the Clinical scores ([4]; T3 (12 months)) was 2,8 ± 2,2, the “electrophoresis: gamma-globulins levels in sera (trend)” value ([5]; Figure 2D legend) was “after a first period of decreasing trend, the gamma globulins trend increase” and the A/G ratio [5, 6] was 0,48 ± 0,23. The Serum albumin [5, 6] was 30,08 ± 9,63%, the “Serum γ-globulin” value [5, 6] was 30,67 ± 7,91% and the A/G ratio ([5]; T1 (2 months)) was 0,55 ± 0,23. The Serum albumin ([5]; T1 (2 months)) was 34,03 ± 9,5%, the “Serum γ-globulin” value ([5]; T1 (2 months)) was 23,15 ± 7,46% and the A/G ratio ([5]; T2 (6 months)) was 0,57 ± 0,23. For the same compound, the Serum albumin ([5]; T2 (6 months)) was 35,22 ± 9,35%, the “Serum γ-globulin” value ([5]; T2 (6 months)) was 21,56 ± 5,86% and the A/G ratio ([5]; T3 (12 months)) was 0,57 ± 0,22. The Serum albumin ([5]; T3 (12 months)) was 35,26 ±9,61% and the “Serum γ-globulin” value ([5]; T3 (12 months)) was 22,74 ± 7,93%.

For milbemycin oxime [M-O], the “cases with severe pododemodicosis not cured” value (generalized demodicosis) was 2/3.

With `Cc1ccc(-c2cc(C(F)(F)F)nn2-c2ccc(S(N)(=O)=O)cc2)cc1` [Celecoxib] the “side effects: animals with chronic bleeding” value (5 control parrots treated only with anti-COX2) was “two”, the “death with acute hemorrhagic event in the proventriculus, time from initiation of therapy” value (adult female African Grey parrot) was no more than 7 days and the “negativization of crop biopsies” value (histology at T1 (six months) and T2 (one year of therapy)) was 20%. The “renal side effect leading to discontinuation” value (in vivo) was “inducing renal failure”, the parrots survived (of 5 parrots, 1.5 year later) was 1 and the parrots died (of 5 parrots, during four months after the end of the therapy) was 4.
